kcat and kcat/KM data for two compounds are collected here from patent US10184115B2, “Mutated cellobiose dehydrogenase with increased substrate specificity” (DIRECTSENS GMBH, priority 2012, dated 2019).

Holding throughout (assay type): biochemical
Assay [1] concerns the target Myriococcum thermophilum cellobiose dehydrogenase (CDH, SEQ ID NO: 1) variant C312Y (Thermothelomyces myriococcoides, UniProt A9XK88, C312Y). Conditions: apparent, DCIP assay, pH 4.5, 30° C. The method, then: (§1) Enzyme activity was assayed at 30° C. using either the DCIP (Karapetyan et al., 2005 Journal of Biotechnology 121: 34-48) or cytochrome c (Canevascini et al., 1991, European Journal of Biochemistry 198: 43-52) as electron acceptor. […] Stock solutions of carbohydrates used for kinetic measurements were prepared in the respective buffer and allowed to stand overnight for mutarotation, while stock solutions of electron acceptors were prepared in water and immediately used. The reaction stoichiometry is 1 for the two-electron acceptor DCIP (1 mole of DCIP reduced per mole of carbohydrate oxidized), but 2 for the one-electron acceptor cytochrome c. Kinetic constants were calculated by fitting the observed data to the Henri-Michaelis-Menten equation or to the adapted model for substrate inhibition using nonlinear least-squares regression and the program SigmaPlot (Systat Software, San Jose, Calif., USA).
(§2) The M. thermophilum CDH gene (EF492051, SEQ ID NO: 2) was codon-optimized for expression in Pichia pastoris according to the method described in Abad et al., 2010 and WO2010/097462 A1 (SEQ ID NO: 13) and synthesized by Gen-script (Piscataway, N.J., USA). cDNA encoding for M. thermophilum CDH was excised from the plasmid pMTSopt using EcoRI and NotI and cloned into the expression vector pPicZA along with its native signal sequence. Plasmid pCT1 was used as template for the amplification of the C. thermophilus CDH cDNA. Restriction enzymes BstBI and XbaI were used for cloning into the expression vector pPicZB along with its native signal sequence. Mutants of M. thermophilum CDH: C312Y, N313S, W316L, W316R, R622N, N721D, C312Y/W316L, C312Y/W316R and C. thermophiles CDH C310Y were prepared by a two step mutagenesis approach using PCR and DpnI (Li et al., 2002). […] SacI linearized expression plasmids were transformed into electrocompetent X-33 cells and transformants were selected on YPD Zeocin plates ([…]).
(§3) Recombinant wild-type CDH as well as variants were produced in 1 L baffled flasks. Precultures were grown overnight in 30 mL of YPD medium at 30° C. and 120 rpm. After approximately 18 hours the precultures were transferred into 1 L baffled flasks containing 200 mL BMGY medium without methanol. Induction with methanol was started immediately using a multichannel peristaltic pump (Minipuls Evolution, Gilson, Middleton, Wis., USA). Each flask was supplied eight times a day with methanol yielding a total concentration of 2% (v/v) methanol per day. Increase in activity was monitored using the DCIP and the cytochrome c enzyme assays. Cultivation was stopped at day five of methanol induction, cells removed by centrifugation (4000 rpm, 20 min) and the supernatant set to a final ammonium sulfate concentration of 20%.
(§4) The sample was loaded on a 20 mL PHE Sepharose FF column (HR26/20) equilibrated with 50 mM Na-acetate buffer pH 5.5 containing 20% ammonium sulfate. Proteins were eluted by increasing the concentration of the elution buffer (50 mM Na-acetate buffer pH 5.5) from 0 to 100% in 5 column volumes and fractions containing CDH activity were pooled. After diafiltration with a polyethersulfone flat-stack cross flow module with a cut-off of 10 kDa (Viva Flow 50, Sartorius, Göttingen, Germany) until conductivity of 5 mS cm^−1 in 20 mM Na-acetate pH 5.5 the samples were loaded on a 20 mL Q-Source column (HR26/20) equilibrated with a 20 mM Na-acetate buffer pH 5.5. CDH was eluted by increasing the concentration of the elution buffer (50 mM Na-acetate buffer pH 5.5 containing 0.5 M NaCl) from 0 to 100% in 50 column volumes. Fractions were tested for CDH activity and pooled according to the highest Reinheitszahl (RZ, calculated from the absorbance ratio 420 nm/280 nm). Purified enzymes were concentrated and diafiltered in 50 mM citrate buffer, pH 5.5, aliquoted and kept at 4° C. for further use.

For assay [2], the target named is Myriococcum thermophilum cellobiose dehydrogenase (CDH, SEQ ID NO: 1) variant C312Y/W316L (Thermothelomyces myriococcoides, UniProt A9XK88, C312Y/W316L). The settings on record: apparent, DCIP assay, pH 4.5, 30° C.; for kcat: ~ values only estimated by non linear regression. As to the method:
as §1, §2, §3, §4

The target of assay [3] is Myriococcum thermophilum cellobiose dehydrogenase (CDH, SEQ ID NO: 1) variant C312Y/W316R (Thermothelomyces myriococcoides, UniProt A9XK88, C312Y/W316R). The settings on record: apparent, DCIP assay, pH 4.5, 30° C.; for kcat: ~ values only estimated by non linear regression. The method, then: as §1, §2, §3, §4
Sequence of Myriococcum thermophilum cellobiose dehydrogenase (CDH, SEQ ID NO: 1) variant C312Y/W316R (A9XK88 entry or part of it C312Y/W316R): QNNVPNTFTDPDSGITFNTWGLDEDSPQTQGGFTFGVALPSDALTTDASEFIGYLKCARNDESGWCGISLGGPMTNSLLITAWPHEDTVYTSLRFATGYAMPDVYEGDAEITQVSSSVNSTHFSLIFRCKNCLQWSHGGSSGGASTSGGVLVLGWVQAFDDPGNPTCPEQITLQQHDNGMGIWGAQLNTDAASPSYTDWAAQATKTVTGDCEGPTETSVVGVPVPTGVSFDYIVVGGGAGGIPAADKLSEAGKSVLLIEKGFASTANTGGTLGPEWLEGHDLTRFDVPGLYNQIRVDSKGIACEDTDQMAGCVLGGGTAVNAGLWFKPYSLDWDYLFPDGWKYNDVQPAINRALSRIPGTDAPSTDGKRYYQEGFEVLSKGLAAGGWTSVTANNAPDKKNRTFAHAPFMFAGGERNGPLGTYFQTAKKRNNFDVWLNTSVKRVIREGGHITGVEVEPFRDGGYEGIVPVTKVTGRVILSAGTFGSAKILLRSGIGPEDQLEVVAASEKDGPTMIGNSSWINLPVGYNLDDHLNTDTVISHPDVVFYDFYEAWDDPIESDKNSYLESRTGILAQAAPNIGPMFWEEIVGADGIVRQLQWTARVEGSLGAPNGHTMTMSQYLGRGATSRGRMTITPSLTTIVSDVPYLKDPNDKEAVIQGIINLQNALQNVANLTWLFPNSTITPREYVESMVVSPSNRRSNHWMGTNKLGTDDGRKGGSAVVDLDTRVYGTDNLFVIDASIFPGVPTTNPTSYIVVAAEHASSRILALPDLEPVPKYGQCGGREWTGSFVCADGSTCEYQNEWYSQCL
In assay [4] the target is T1, Corynascus thermophilus CDH flavodehydrogenase domain, recombinant wild type (wtDH), amino acids 249-787 of SEQ ID NO: 7 (Thermothelomyces fergusii, UniProt E7D6B9).
T1 sequence (E7D6B9 249-787): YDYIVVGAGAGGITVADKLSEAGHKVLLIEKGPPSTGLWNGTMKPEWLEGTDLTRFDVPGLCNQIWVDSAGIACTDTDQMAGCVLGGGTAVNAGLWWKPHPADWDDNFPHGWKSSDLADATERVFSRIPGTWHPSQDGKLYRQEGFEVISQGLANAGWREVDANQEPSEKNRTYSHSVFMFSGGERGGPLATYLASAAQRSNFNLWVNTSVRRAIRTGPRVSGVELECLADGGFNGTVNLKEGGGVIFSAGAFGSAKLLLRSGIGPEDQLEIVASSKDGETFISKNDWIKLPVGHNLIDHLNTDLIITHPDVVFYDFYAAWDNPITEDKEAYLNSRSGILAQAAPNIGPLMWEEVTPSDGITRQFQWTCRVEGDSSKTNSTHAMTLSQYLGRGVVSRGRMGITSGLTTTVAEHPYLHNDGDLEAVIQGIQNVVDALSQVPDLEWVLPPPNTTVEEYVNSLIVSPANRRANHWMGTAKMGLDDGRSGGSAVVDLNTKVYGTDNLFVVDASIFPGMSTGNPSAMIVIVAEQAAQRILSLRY
Description: Steady-state kinetics, DCIP assay: C. thermophilus flavodehydrogenase domain wt. Conditions: apparent, pH 5.5, 30° C. The method, then:
as §1
The construct was confirmed by sequencing.
as §3
as §4, with “Purified enzymes were concentrated and diafiltered in 50 mM citrate buffer, pH 5.5, aliquoted and kept at 4° C. for further use.” left out

Usually kcat stands for the maximal rate divided by the concentration of active sites. As a reminder, the kcat/KM is the turnover number divided by the Michaelis constant.

Sequence of Myriococcum thermophilum cellobiose dehydrogenase (CDH, SEQ ID NO: 1) variant C312Y (A9XK88 entry or part of it C312Y): as the sequence (A9XK88 entry or part of it C312Y/W316R) above, with R295W counted along it
Sequence of Myriococcum thermophilum cellobiose dehydrogenase (CDH, SEQ ID NO: 1) variant C312Y/W316L (A9XK88 entry or part of it C312Y/W316L): as the sequence (A9XK88 entry or part of it C312Y/W316R) above, with R295L counted along it

Consider `OC[C@H]1O[C@H](O[C@H]2[C@H](O)[C@@H](O)C(O)O[C@@H]2CO)[C@H](O)[C@@H](O)[C@@H]1O` (stereo partly shown) [Maltose, maltose], for which the kcat in assay [1] was 0.48 s⁻¹; in assay [2], approximately 0.92 s⁻¹; in assay [3] it was approximately 2.7 s⁻¹; in assay [4] it was 0.86 s⁻¹. Besides, the kcat/KM in assay [1] amounted to 3.5 M⁻¹ s⁻¹; in assay [2], 0.62 M⁻¹ s⁻¹; in assay [3] it was 0.17 M⁻¹ s⁻¹; in assay [4], 296 M⁻¹ s⁻¹.

For the compound `OC[C@H]1OC(O)[C@H](O)[C@@H](O)[C@@H]1O` (stereo partly shown) [Glucose, glucose], the kcat is 9.6 s⁻¹ in assay [1], 6.4 s⁻¹ in assay [2], 4.3 s⁻¹ in assay [3] and 8.8 s⁻¹ in assay [4]. Further, the kcat/KM was found to be 50 M⁻¹ s⁻¹ in assay [1], 13 M⁻¹ s⁻¹ in assay [2], 6.2 M⁻¹ s⁻¹ in assay [3] and 79.1 M⁻¹ s⁻¹ in assay [4].
